The results in this text go back to a melting point compilation (Tetko et al.; mined from patent text by program, amines drawn as free bases though some values may be those of a salt).

Where only a bound is given, the exact number is not on record here.

A word on the melting point: it is the temperature, or range, at which the solid turns liquid. In the case of `CCOc1nn(Cc2ccc(OCc3cn4c(-c5ccccc5)cccc4n3)cc2)cc1CCC(=O)O`, the melting point was 160 to 161 °C. For `CC(=O)NCc1ccc2c(c1)N(C1CCN(CCCCc3ccc(F)cc3)CC1)CC2`, the melting point fell in the range of 119 to 121 °C. The figure for `N#CN=C1SCCN1Cc1c(Cl)ccc(C(=O)O)c1Cl` is 208 °C; for `CCc1nc2cc(C(=O)NC)c(Cl)cc2n1-c1ccc(CCOC(=O)NS(=O)(=O)c2ccc(C)cc2)cc1` it is 201 to 204 °C. The figure for `NC(Cc1cccc2cccc(Br)c12)=NO` is 123 to 125 °C.

`O=C(O)CCc1ccc(-c2nc3c(=O)n(CC4CCCCC4)c(=O)n(CC4CCCCC4)c3[nH]2)cc1` yielded a melting point greater than 300 °C. `CCOC(=O)c1cc(=O)c2c(OCC(O)COc3ccc(Cl)cc3)cccc2o1` (stereo not given) yielded a melting point of 98 to 100 °C. To `CCCCCCCCCCOCCCCCCCSCCCO` belongs 28 to 32 °C; to `COc1ccc(CC2=NC(C)(C)CO2)cc1[N+](=O)[O-]`, 88 to 90 °C; to `O=C1NCCCN1C1(CO)CCN(Cc2ccccc2)CC1`, 210 °C. The figure for `CC(C)(C)[Si](C)(C)Oc1ccc2cc3c(cc2c1)C(=O)c1cc2cc(O[Si](C)(C)C(C)(C)C)ccc2cc1C3=O` is greater than 270 °C. As to `CNC(=S)NS(=O)(=O)c1cc2c(cc1C)OCC(NC(=O)c1cc(Cl)ccc1OC)C2` (stereo not given), the melting point is 207 to 208 °C. To `COc1ccc(N2CCN(CCc3ccc4[nH]c(=O)oc4c3)CC2)c2ccccc12` belongs 200 °C. Regarding `Nc1nc(Cc2ccccc2)no1`, the melting point lay within 142 to 145 °C. Consider `Cc1ccc(S(=O)(=O)OC[C@@H](O)Cc2cc3ccccc3[nH]2)cc1`, for which the melting point lay in the range of 96 to 97 °C. To `CC(C)(O)c1cc(-c2ccc(Cl)cc2)nc2ccnn12` belongs 113 to 115 °C; to `CC(C)(Cl)C(CCNC(=O)C(F)(F)F)N=O` (stereo not given), 91 to 93 °C; to `NS(=O)(=O)c1ccc(-c2cnn(C3=CC=CC(F)(F)C3F)c(=O)c2-c2ccc(F)cc2)cc1` (stereo not given), 190 to 193 °C. Molecule `Cc1c(C2CCC(c3ccccc3)(N(C)C)CC2)n(CC(O)CN(C)C)c2ccccc12` (stereo not given) had a melting point of 54 to 57 °C.

For `CCOC(=O)C=Cc1ccc(C=Cc2ccc(Br)cc2)cc1`, the melting point was 167 °C. To `CC1CC(=O)NN=C1c1ccc(Nc2nc(=O)c3ccccc3[nH]2)cc1` (stereo not given) belongs 313 to 319 °C. The molecule `Cc1cc(COc2ccc(C(=O)NC[C@@H](C(=O)NO)N3CCN(S(=O)(=O)C(C)C)CC3)cc2)c2ccccc2n1` displayed a melting point of 188 °C. `O=C(O)c1ccc(OCCCCCCO)cc1F` showed a melting point of 98 to 99 °C.

Consider `Brc1ccc2c(c1)C1(c3ccccc3-c3ccccc31)c1cc(Br)ccc1-2`, for which the melting point fell in the range of 340 to 341 °C.

Regarding `CC(C)c1cc(Oc2c(I)cc(CP(=O)(O)O)cc2I)ccc1O`, the melting point was greater than 220 °C. Consider `FC(F)(F)c1ccc(OCCCc2cn(C(c3ccccc3)(c3ccccc3)c3ccccc3)cn2)cc1`, for which the melting point is 150 to 151 °C.

On to `CCn1cc(-c2cccc(C(F)(F)F)c2)c(=O)n1-c1cccc(C(F)(F)F)c1`, for which the melting point was 110 to 111 °C. Molecule `CC#CCOc1ccc(OCC(=O)OCC)cc1` showed a melting point of 100 to 105 °C.

The molecule `Cc1c(NC(=O)C(CSC(=O)c2cccs2)Cc2ccccc2)cccc1C(=O)O` (stereo not given) displayed a melting point of 164 to 167 °C. Regarding `CC(C)c1cccc(C(C)C)c1NC(=O)CN1CC2(CCCCC2)N(c2ccccc2)C1=O`, the melting point fell in the range of 107 to 109 °C. The figure for `CCOC(=O)N1CCN(C2Cc3cc(C)ccc3Sc3ccccc32)CC1` (stereo not given) is 96 to 98 °C; for `COc1ccc(-c2nn(Cc3ccc(F)cc3)c(=O)cc2-c2ccncc2)cc1` it is 154 to 155 °C; for `CNC(=O)N1CC(Oc2ccc(C(F)(F)F)cc2Cl)C1` it is 160 to 161 °C. `N#CC(Cl)Cc1ccc(C(=O)O)cc1` (stereo not given) gave a melting point of 157 °C. `CC(=O)NCC1CN(c2ccc(-c3cccc(CN)c3)c(F)c2)C(=O)O1` (stereo not given) registered a melting point of 170 °C. Molecule `CS(=O)(=O)N1CCN(C(CC2Cc3cc(C(N)=O)ccc3O2)C(=O)NO)CC1` (stereo not given) showed a melting point of 185 °C.

`CC(C)NC(=S)Nc1cccc(-c2ccnc3c(C(=O)c4cccs4)cnn23)c1` yielded a melting point of 208 to 210 °C. The figure for `O=S1(=O)N(CCCN2CCN(c3ccc(O)cc3)CC2)c2cccc3c2N1CCC3` is 182 °C; for `COc1ccc(C)cc1NC(=O)Nc1ccc(N2CCN(Cc3ccccc3)CC2)cc1` it is 184 to 186 °C.

Take `CC(C)(C)c1cc([N+](=O)[O-])cc(C(C)(C)C)c1O`: the melting point lay within 167 to 168 °C. The figure for `CCOc1ccc2ccc(F)c(F)c2c1F` is 96.5 to 98.5 °C.

`C=C(C(=O)c1ccc(C=CC(=O)O)cc1)c1c(F)c(F)c(F)c(F)c1F` gave a melting point of 214 to 217 °C. To `COC(=O)c1ccc2cc(OC)c(OC)cc2c1-c1ccnc(Cl)c1` belongs 142 to 145 °C. `COc1ccc2c(c1)C(=O)OC21CCN(C)CC1` showed a melting point of 123 to 125 °C. As to `O=C(Nc1cccc(F)c1)C1C(=O)Sc2ccccc21` (stereo not given), the melting point was 169 to 171 °C.

The molecule `N#CCCNC(=O)c1cccc(-c2cccn3cc(Cc4cccc(C(F)(F)F)c4)nc23)c1` returned a melting point of 126 to 127 °C. `CCCCC(=O)c1ccc(-c2ccc(C(=O)Nc3ccc(OC)c(N4CCN(C)CC4)c3)cc2C)cc1`: the melting point is 65 to 67 °C. Turning to `CCOC(=O)c1c(C(F)(F)F)nc(C(F)(F)F)c(C)c1OCC`, the melting point lay in the range of 72.5 to 74 °C. To `CN(C)Cc1ccc(CSCCNc2nc(C(O)c3ccccc3)nn2C)o1` (stereo not given) belongs 121 to 122 °C.

Turning to `CNC(=O)c1ccc(-c2cnc3[nH]c(=O)n(CC4CCCCC4)c3n2)cc1`, the melting point lay within 273 to 275 °C. To `Cc1ccc(C)c(-c2cc(CO)ccc2CO)c1` belongs 145 to 148 °C; to `Cn1cc(-c2cccc(Br)c2)c(=O)c(-c2cccc(C(F)(F)F)c2)c1`, 151 to 153 °C; to `NC(=O)Cc1cnc2c(NC(=O)c3c(Cl)cccc3Cl)cccc2c1`, 251 to 253 °C. The figure for `COc1cc(C(=O)NCCc2ccc(N)cc2)cc(OC)c1OC(C)=O` is 178 to 180 °C; for `O=C(Nc1ccccc1S(=O)(=O)c1ccccc1)N[C@@H](Cc1ccc(NCc2c(Cl)cccc2Cl)cc1)C(=O)O` it is 116 °C. To `CCOC(=O)C1=C(CCl)NC(C)=C(C(=O)OC)C1c1cccc(C(F)(F)F)c1` (stereo not given) belongs 115 to 116 °C. Molecule `OCc1cnc2c(F)c(F)c(F)cc2c1-c1cccs1` gave a melting point of 126 to 128 °C. In turn, `Cc1cccc(-c2nc(C(C)C)[nH]c2-c2cccc(-c3ccc(S(N)(=O)=O)cc3)c2)n1` yielded a melting point of 255 to 258 °C. The molecule `C[C@@H](NC(=O)c1cnn(-c2ccc(Cl)cc2)c1C1CC1)[C@](O)(Cn1cncn1)c1ccc(F)cc1F` had a melting point of 181 to 182 °C. To `Cc1ccc(-c2cccc(C(N)=NO)c2)cc1` belongs 134 to 136 °C; to `N#Cc1ccc(N(CCOc2ccc(OCc3ccccc3)cc2)n2cnnc2)cc1`, 160 to 162 °C. Take `CC(=Cc1ccsc1)N(O)C(N)=O`: the melting point is 165 to 167 °C.

For `CCC1C(=O)c2c(cc(OCC(=O)O)c(Cl)c2Cl)C1c1ccccc1` (stereo not given), the melting point was 199 to 203 °C. The figure for `CCCCC1(N(C)C)CCC(c2[nH]c3ccccc3c2C)(c2[nH]c3ccccc3c2CCN)CC1` (stereo not given) is 105 to 112 °C.

`CC(C)(C)OC(=O)NC1CCCCCC=CC2CC2(C(=O)NS(=O)(=O)C2CC2)NC(=O)C2CC(OC(=O)c3cccc(C#N)c3)CN2C1=O` (stereo not given): the melting point fell in the range of 151 to 153 °C. To `COC(=O)CCc1cc2cc(Cl)ccc2n1S(=O)(=O)c1cccc(C(F)(F)F)c1` belongs 98 to 100 °C. To `CCCCCCC(C)OS(=O)(=O)NC(=O)Nc1c(C(C)C)cccc1C(C)C` (stereo not given) belongs 109 to 113 °C; to `CCCCCCCCCCOc1ccc(Cc2cccc(C(=O)O)c2)cc1CCC(=O)O`, 146 to 148 °C. `O=C(Nc1ccc(-n2nc(C(F)(F)F)cc2C2CC2)cc1)c1ccc2nccnc2c1` yielded a melting point of 205 to 209 °C. Regarding `Cc1cccc(-c2nc3ccccn3c2-c2ccnc(-c3ccc(OCc4cn(C)cn4)cc3)c2)n1`, the melting point turned out to be 120 °C.

`CCc1cc(CNc2cccc3ccccc23)c(OC)nc1C` registered a melting point of 82 to 83 °C.

With `CCc1cc2c(c3c1[nH]c1ccc(O)cc13)C(=O)N(CCN(CC)CC)C2=O`, the melting point was 188 to 189 °C. To `COc1ccc(C(=O)c2c(-c3ccccc3)sc3ccccc23)cc1` belongs 107 to 109 °C. As for `CCCCCCCCCCCCCCCCCCCCOC(=O)Cl`, the melting point is 33 to 34 °C. With `O=C(O)c1cn(Cc2csnn2)c2cc(F)c(F)cc2c1=O`, the melting point was 257 to 261 °C.

With `O=C(O)C1=Cc2ccc(C(F)(F)F)cc2OC1C(F)(F)F` (stereo not given), the melting point lay within 190 to 194 °C. The figure for `CCOP(=S)(OCC)ON=C1C=CC(=C(C#N)c2ccccc2C)S1` is 86 to 87 °C; for `CCCCN1C2=NCCN2C(c2ccccc2)c2cc(Cl)ccc21` (stereo not given) it is 97 to 97.5 °C; for `Cc1nnc(-c2ccnc(NCc3cccc(C(F)(F)F)c3)c2)o1` it is 141 to 142 °C. The figure for `Cn1cc2c(nc(NC(=O)Nc3ccc(CC(=O)NCCOCCOCCNC(=O)OC(C)(C)C)cc3)n3nc(-c4ccco4)nc23)n1` is 157 to 165 °C. To `NS(=O)(=O)Oc1cccc(Cl)c1` belongs 82 to 83 °C; to `CC(=O)c1ccc(-c2ccc(Br)cc2F)cc1`, 94.5 to 95.5 °C; to `CS(=O)(=O)c1ccc(-n2nc(C(F)(F)F)cc2-c2ccc(C#CCCCO)cc2)cc1`, 87 to 90 °C. In the case of `CCNC(=O)CN(c1ccccc1)[C@@H]1c2cc(C#N)ccc2OC(C)(C)[C@@H]1O`, the melting point was 202 to 204 °C. `Cc1cn(N=Cc2cccnc2)c(=O)[nH]1` displayed a melting point of 200 to 202 °C.
